Reference: US20190175528A1, “INHIBITION OF BIOFILM ORGANISMS” (NovaBiotics Limited, priority 2009, published 2019)
Numbered stars: 1 amine (or outer) side, 2 acyl side, 3 side chain; on linkers, the order of the positions; unused ones are H or OH. Ends that are not written are not given here. Peptide text beside a SMILES is read from it. Cysteamide = C(CS[*:3])N[*:1]

Key:
S. epidermidis ATCC12228 [1] = assay type: cell-based, Staphylococcus epidermidis; conditions: ATCC12228, 24 h
Experimental: (§1) The bacterial inoculum was established by the dilution method from actively-growing cultures in Mueller-Hinton broth, standardized with 0.5 McFarland turbidity standard as described in the CLSI method M26-A.
(§2) To determine the prevention of biofilm formation, both the bacterial inoculum and the antimicrobial agents were added simultaneously to the plates. The plates were incubated at 37° C. for 24 h and the optical density was read at 625 nm on a microtitre plate reader (BioTek Powerwave XS, Winooski, USA). The MIC was obtained as the lowest concentration of antimicrobial showing total inhibition of bacterial growth.

S. aureus ATCC25923 [2] = assay type: cell-based, Staphylococcus aureus; conditions: ATCC25923, 24 h
Experimental: as §1, §2

[3] = system: S. aureus DSM 11729 (MRSA); assay: microbe, parasite or virus in culture; assay type: cell-based, Staphylococcus aureus; conditions: DSM 11729, 24 h; for MIC pH5.5, 320 mM NaCl, S. aureus 11729 / MIC pH5.5, S. aureus 11729: pH 5.5
Experimental: as §1
as §2, with “growth. […]” for “growth.”
(§3) FIC=MICA[combination]/MICA[alone]+MICB[combination]/MICB[alone] […]
(§4) In order to assess for the prevention of biofilm formation by both Gram-positive and Gram-negative bacteria, the bacterial inoculum and antimicrobial agents were added simultaneously in the plates. The range of concentrations of antimicrobial agents was 0-500 μg/ml NP108 and 0-320 μg/ml cysteamine against the Gram-negative bacteria P. aeruginosa ATCC BAA-47 and 0-1000 μg/ml NP108 and 0-320 μg/ml cysteamine against the Gram-positive MRSA.

P. aeruginosa DSMZ1128 [4] = assay type: cell-based, Pseudomonas aeruginosa; conditions: DSMZ1128, 24 h
Experimental: as §1, §2

P. aeruginosa DSMZ1299 [5] = assay type: cell-based, Pseudomonas aeruginosa; conditions: for MIC at pH 7, P. aeruginosa D5MZ1299: DSMZ1299, 24 h
Experimental: as §1, §2

[6] = system: P. aeruginosa ATCC BAA-47; assay: microbe, parasite or virus in culture; assay type: cell-based, Pseudomonas aeruginosa; conditions: ATCC BAA-47, 24 h; for MIC pH5.5, 320 mM NaCl, P. aeruginosa ATCCBAA-47 / MIC pH5.5, P. aeruginosa ATCCBAA-47: pH 5.5
Experimental: as §1
as §2, with “growth. […]” for “growth.”
as §3, §4

S. epidermidis ATCC12228 [7] = conditions: ATCC12228, pH 7
S. aureus ATCC25923 [8] = conditions: ATCC25923, pH 7
[9] = system: S. aureus DSM 11729 (MRSA); conditions: for MBC at pH5.5, S. aureus 11729 / MBC pH5.5, 320 mM NaCl, S. aureus 11729: DSM 11729, pH 5.5; for MBC following MIC at pH 7, S. aureus DSMZ11729: DSM 11729, pH 7
P. aeruginosa DSMZ1128 [10] = conditions: DSMZ1128, pH 7
P. aeruginosa DSMZ1299 [11] = conditions: DSMZ1299, pH 7
[12] = system: P. aeruginosa ATCC BAA-47; conditions: for MBC at pH5.5, P. aeruginosa ATCCBAA-47 / MBC pH5.5, 320 mM NaCl, P. aeruginosa ATCCBAA-47: ATCC BAA-47, pH 5.5; for MBC following MIC at pH 7, P. aeruginosa ATCCBAA-47: ATCC BAA-47, pH 7

Compound | MIC at pH 7, S. epidermidis ATCC12228 (S. epidermidis ATCC12228 [1]) | MIC at pH 7, S. aureus ATCC25923 (S. aureus ATCC25923 [2]) | MIC pH5.5, 320 mM NaCl, S. aureus 11729 [3] | MIC pH5.5, S. aureus 11729 [3] | MIC at pH 7, S. aureus DSMZ11729 [3] | MIC at pH 7, P. aeruginosa DSMZ1128 (P. aeruginosa DSMZ1128 [4]) | MIC at pH 7, P. aeruginosa D5MZ1299 (P. aeruginosa DSMZ1299 [5]) | MIC pH5.5, 320 mM NaCl, P. aeruginosa ATCCBAA-47 [6] | MIC pH5.5, P. aeruginosa ATCCBAA-47 [6] | MIC at pH 7, P. aeruginosa ATCCBAA-47 [6] | MBC following MIC at pH 7, S. epidermidis ATCC12228 (S. epidermidis ATCC12228 [7]) | MBC following MIC at pH 7, S. aureus ATCC25923 (S. aureus ATCC25923 [8]) | MBC at pH5.5, S. aureus 11729 [9] | MBC pH5.5, 320 mM NaCl, S. aureus 11729 [9] | MBC following MIC at pH 7, S. aureus DSMZ11729 [9] | MBC following MIC at pH 7, P. aeruginosa DSMZ1128 (P. aeruginosa DSMZ1128 [10]) | MBC following MIC at pH 7, P. aeruginosa DSMZ1299 (P. aeruginosa DSMZ1299 [11]) | MBC at pH5.5, P. aeruginosa ATCCBAA-47 [12] | MBC pH5.5, 320 mM NaCl, P. aeruginosa ATCCBAA-47 [12] | MBC following MIC at pH 7, P. aeruginosa ATCCBAA-47 [12] | other results
N=C(N)NCCC[C@H](NC(=O)[C@H](CCCCN)NC(=O)[C@@H]1CCCN1C(=O)[C@H](CCCNC(=N)N)NC(=O)[C@H](CCCNC(=N)N)NC(=O)[C@@H]1CCCN1C(=O)[C@H](CCCCN)NC(=O)[C@H](CCCNC(=N)N)NC(=O)[C@H](CCCNC(=N)N)NC(=O)[C@@H]1CCCN1C(=O)[C@H](CCCCN)NC(=O)[C@@H](N)CCCCN)C(=O)N[C@@H](CCCCN)C(=O)N[C@@H](CCCCN)C(=O)NCCS [NP449, KKPRRKPRRPKRKK-cysteamine] (H-KKPRRKPRRPKRKK-Cysteamide; N-terminus assumed) | 31.25 μg/ml | 250 μg/ml | >500 μg/ml | >500 μg/ml | 125 μg/ml | 250 μg/ml | 125 μg/ml | >500 μg/ml | >500 μg/ml | 250 μg/ml | 125 μg/ml | >500 μg/ml | >500 μg/ml | >500 μg/ml | 250 μg/ml | 500 (2) μg/ml | 250 (2) μg/ml | >500 μg/ml | >500 μg/ml | >500 μg/ml | 
N=C(N)NCCC[C@H](NC(=O)[C@H](CCCCN)NC(=O)[C@@H]1CCCN1C(=O)[C@H](CCCNC(=N)N)NC(=O)[C@H](CCCNC(=N)N)NC(=O)[C@@H]1CCCN1C(=O)[C@H](CCCCN)NC(=O)[C@H](CCCNC(=N)N)NC(=O)[C@H](CCCNC(=N)N)NC(=O)[C@@H]1CCCN1C(=O)[C@H](Cc1c[nH]cn1)NC(=O)[C@@H](N)Cc1c[nH]cn1)C(=O)N[C@@H](Cc1c[nH]cn1)C(=O)N[C@@H](Cc1c[nH]cn1)C(=O)NCCS [NP451, HHPRRKPRRPKRHH-cysteamine] (H-HHPRRKPRRPKRHH-Cysteamide; N-terminus assumed) | 125 μg/ml | 500 μg/ml | >500 μg/ml | >500 μg/ml | 500 μg/ml | >500 μg/ml | >500 μg/ml | >500 μg/ml | >500 μg/ml | >500 μg/ml | 125 μg/ml | >500 μg/ml | >500 μg/ml | >500 μg/ml | >500 μg/ml | >500 μg/ml | >500 μg/ml | 250 μg/ml | >500 μg/ml | >500 μg/ml | Exp#3, P. aeruginosa DSMZ1299 (quantity not clearly headed) (P. aeruginosa DSMZ1299 [5]): >500 µg/mL
N=C(N)NCCC[C@H](NC(=O)[C@H](CCCNC(=N)N)NC(=O)[C@H](CCCNC(=N)N)NC(=O)[C@H](CCCNC(=N)N)NC(=O)[C@@H](N)CCCNC(=N)N)C(=O)NCCS [NP457, RRRRR-cysteamine] (H-RRRRR-Cysteamide; N-terminus assumed) | 31.25 μg/ml | 125 μg/ml | >500 μg/ml | >500 μg/ml | 125 μg/ml | >500 μg/ml | >500 μg/ml | >500 μg/ml | >500 μg/ml | 250 μg/ml | 125 (2) μg/ml | 62.5 μg/ml | >500 μg/ml | >500 μg/ml | 125 (2) μg/ml | >500 μg/ml | >500 μg/ml | >500 μg/ml | >500 μg/ml | >500 μg/ml | Exp#3, P. aeruginosa DSMZ1299 (quantity not clearly headed) (P. aeruginosa DSMZ1299 [5]): >500 µg/mL
N=C(N)NCCC[C@H](NC(=O)[C@H](CCCNC(=N)N)NC(=O)[C@H](CCCNC(=N)N)NC(=O)[C@H](CCCNC(=N)N)NC(=O)[C@@H](N)CCCNC(=N)N)C(=O)N[C@@H](Cc1c[nH]cn1)C(=O)N[C@@H](Cc1c[nH]cn1)C(=O)NCCS [NP458, RRRRRHH-cysteamine] (H-RRRRRHH-Cysteamide; N-terminus assumed) | 31.25 μg/ml | 250 μg/ml | >500 μg/ml | >500 μg/ml | 250 μg/ml | 250 μg/ml | 125 μg/ml | >500 μg/ml | >500 μg/ml | 62.5 μg/ml | 500 μg/ml | 125 μg/ml | >500 μg/ml | >500 μg/ml | 250 μg/ml | >500 μg/ml | >500 μg/ml | >500 μg/ml | >500 μg/ml | >500 μg/ml | 
HHHFRFFFRFRRR [NP438, HHHFRFFFRFRRR] | <7.8 μg/ml | >500 μg/ml | >500 μg/ml | >500 μg/ml | >500 μg/ml | >500 μg/ml | 500 μg/ml | 62.5 μg/ml | 125 μg/ml | >500 μg/ml | 125 μg/ml | >500 μg/ml | >500 μg/ml | >500 μg/ml | >500 μg/ml | >500 μg/ml | >500 μg/ml | >500 μg/ml | >500 μg/ml | >500 μg/ml | 
